Data as given in ChEMBL document CHEMBL3817837, “Targeting epigenetic reader and eraser: Rational design, synthesis and in vitro evaluation of dimethylisoxazoles derivatives as BRD4/HDAC dual inhibitors” (Bioorg Med Chem Lett, 2016).
pIC50: −log10 of the molar value.

What follows are compounds tested on K562 (assay: Antiproliferative activity against human K562 cells assessed as reduction in cell viability incubated for 72 hrs by Alamar blue assay). Conditions: K562, 72 h.
Type: functional, cell-based

SMILES | pIC50
Cc1noc(C)c1-c1cc(NC(=O)CCCCCCC(=O)NO)cc(C(=O)c2ccccc2)c1 | 5.73
O=C(CCCCCCC(=O)Nc1ccccc1)NO [VORINOSTAT] | 6.77
Cc1noc(C)c1-c1cc(NC(=O)CCCCCC(=O)NO)cc(C(=O)c2ccccc2)c1 | 5.63
Cc1sc2c(c1C)C(c1ccc(Cl)cc1)=N[C@@H](CC(=O)OC(C)(C)C)c1nnc(C)n1-2 (racemic) | 6.19

The compounds below were run against Histone deacetylase 1 (Homo sapiens, UniProt Q13547) (assay: Inhibition of recombinant HDAC1 (unknown origin) using of Fluor-de-Lys substrate incubated for 10 mins by fluorimetric assay). Conditions: not given.
Chain of Histone deacetylase 1 (Q13547 whole entry): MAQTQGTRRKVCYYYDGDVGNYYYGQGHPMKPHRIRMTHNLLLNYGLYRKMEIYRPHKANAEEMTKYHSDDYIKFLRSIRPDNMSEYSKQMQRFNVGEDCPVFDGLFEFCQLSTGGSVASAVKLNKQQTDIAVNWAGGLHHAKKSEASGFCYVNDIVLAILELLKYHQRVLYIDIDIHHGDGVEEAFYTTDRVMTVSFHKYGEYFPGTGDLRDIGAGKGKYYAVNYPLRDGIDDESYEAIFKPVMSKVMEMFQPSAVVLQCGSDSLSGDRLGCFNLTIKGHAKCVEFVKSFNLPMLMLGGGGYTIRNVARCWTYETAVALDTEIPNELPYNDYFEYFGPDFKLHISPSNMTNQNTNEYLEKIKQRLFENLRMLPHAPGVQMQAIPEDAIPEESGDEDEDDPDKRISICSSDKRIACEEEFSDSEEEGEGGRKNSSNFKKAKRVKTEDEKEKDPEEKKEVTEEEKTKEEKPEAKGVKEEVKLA

SMILES | pIC50
Cc1noc(C)c1-c1cc(OCCCCCCCC(=O)NO)cc(C(=O)c2ccccc2)c1 | 5.76
Cc1noc(C)c1-c1cc(OCCCCCCC(=O)NO)cc(C(=O)c2ccccc2)c1 | 5.84
Cc1noc(C)c1-c1cccc(NC(=O)CCCCCC(=O)NO)c1 | 6.44
Cc1noc(C)c1-c1cc(NC(=O)CCCCCCC(=O)NO)cc(C(=O)c2ccccc2)c1 | 6.82
Cc1noc(C)c1-c1cc(OCCCCC(=O)NO)cc(C(=O)c2ccccc2)c1 | 5.26
Cc1noc(C)c1-c1cc(NC(=O)CCCCCC(=O)NO)cc(C(=O)c2ccccc2)c1 | 6.57
Cc1noc(C)c1-c1cc(NC(=O)CCCCC(=O)NO)cc(C(=O)c2ccccc2)c1 | 6.12
Cc1noc(C)c1-c1cc(OCCCCCC(=O)NO)cc(C(=O)c2ccccc2)c1 | 5.83
Cc1noc(C)c1-c1cc(OCCCCCCC(=O)NO)cc(C(O)c2ccccc2)c1 (configuration not stated) | 6.01

Each compound was assayed against T1, Bromodomain-containing protein 4 (Homo sapiens, UniProt O60885) (assay: Inhibition of human BRD4 expressed in Escherichia coli BL21(DE3)-R3-pRARE2 by bromodomain alphascreen peptide displacement assay). Conditions: not given.

SMILES | pIC50
Cc1noc(C)c1-c1cc(OCCCCCCCC(=O)NO)cc(C(=O)c2ccccc2)c1 | 5.52
Cc1noc(C)c1-c1cc(OCCCCCCC(=O)NO)cc(C(=O)c2ccccc2)c1 | 5.98
Cc1noc(C)c1-c1cccc(NC(=O)CCCCCC(=O)NO)c1 | 5.43
Cc1noc(C)c1-c1cc(NC(=O)CCCCCCC(=O)NO)cc(C(=O)c2ccccc2)c1 | 6.17
Cc1noc(C)c1-c1cc(OCCCCC(=O)NO)cc(C(=O)c2ccccc2)c1 | 5.83
Cc1noc(C)c1-c1cc(NC(=O)CCCCCC(=O)NO)cc(C(=O)c2ccccc2)c1 | 6.07
Cc1noc(C)c1-c1cc(NC(=O)CCCCC(=O)NO)cc(C(=O)c2ccccc2)c1 | 6.11
Cc1noc(C)c1-c1cc(OCCCCCC(=O)NO)cc(C(=O)c2ccccc2)c1 | 5.86
Cc1noc(C)c1-c1cc(OCCCCCCC(=O)NO)cc(C(O)c2ccccc2)c1 (configuration not stated) | 6.11

What follows are compounds tested against T2, Bromodomain-containing protein 9 (Homo sapiens) (UniProt Q9H8M2) (assay: Binding affinity to human BRD9 expressed in Escherichia coli BL21(DE3)-R3-pRARE2 assessed as change in melting temperature at 25 uM by SYPRO orange based protein stability shift assay). Conditions: not given.
T2 sequence (whole entry): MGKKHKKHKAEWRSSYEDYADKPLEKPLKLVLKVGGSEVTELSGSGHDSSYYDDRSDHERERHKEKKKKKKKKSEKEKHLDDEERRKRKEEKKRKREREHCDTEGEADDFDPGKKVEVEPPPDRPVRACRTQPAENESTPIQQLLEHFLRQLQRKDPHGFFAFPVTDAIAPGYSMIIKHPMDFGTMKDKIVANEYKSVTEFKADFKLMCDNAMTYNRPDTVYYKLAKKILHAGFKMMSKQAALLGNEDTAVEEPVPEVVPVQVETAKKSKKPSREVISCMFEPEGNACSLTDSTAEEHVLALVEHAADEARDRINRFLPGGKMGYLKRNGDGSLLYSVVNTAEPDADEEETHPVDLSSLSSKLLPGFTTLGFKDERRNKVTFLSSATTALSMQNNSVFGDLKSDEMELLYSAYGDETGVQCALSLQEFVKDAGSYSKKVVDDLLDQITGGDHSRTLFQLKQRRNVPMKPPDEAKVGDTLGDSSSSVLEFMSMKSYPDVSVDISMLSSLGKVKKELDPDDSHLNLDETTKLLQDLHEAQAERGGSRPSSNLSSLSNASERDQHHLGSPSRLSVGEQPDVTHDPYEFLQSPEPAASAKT

SMILES | ΔTm
Cc1noc(C)c1-c1cc(OCCCCCCCC(=O)NO)cc(C(=O)c2ccccc2)c1 | 1.22 °C
Cc1noc(C)c1-c1cc(OCCCCCCC(=O)NO)cc(C(=O)c2ccccc2)c1 | 1.72 °C
Cc1noc(C)c1-c1cccc(NC(=O)CCCCCC(=O)NO)c1 | -0.13 °C
Cc1noc(C)c1-c1cc(NC(=O)CCCCCCC(=O)NO)cc(C(=O)c2ccccc2)c1 | 2.97 °C
Cc1noc(C)c1-c1cc(OCCCCC(=O)NO)cc(C(=O)c2ccccc2)c1 | -0.75 °C
Cc1noc(C)c1-c1cc(NC(=O)CCCCCC(=O)NO)cc(C(=O)c2ccccc2)c1 | 2.26 °C
Cc1noc(C)c1-c1cc(NC(=O)CCCCC(=O)NO)cc(C(=O)c2ccccc2)c1 | 2.79 °C
Cc1noc(C)c1-c1cc(OCCCCCC(=O)NO)cc(C(=O)c2ccccc2)c1 | 1.56 °C
Cc1noc(C)c1-c1cc(OCCCCCCC(=O)NO)cc(C(O)c2ccccc2)c1 (configuration not stated) | 1.55 °C

These compounds were tested against Chromatin remodeling regulator CECR2 (Homo sapiens) (UniProt Q9BXF3) (assay: Binding affinity to human CECR2 expressed in Escherichia coli BL21(DE3)-R3-pRARE2 assessed as change in melting temperature at 25 uM by SYPRO orange based protein stability shift assay). Conditions: not given.
Chain of Chromatin remodeling regulator CECR2 (Homo sapiens) (Q9BXF3 whole entry, looked up): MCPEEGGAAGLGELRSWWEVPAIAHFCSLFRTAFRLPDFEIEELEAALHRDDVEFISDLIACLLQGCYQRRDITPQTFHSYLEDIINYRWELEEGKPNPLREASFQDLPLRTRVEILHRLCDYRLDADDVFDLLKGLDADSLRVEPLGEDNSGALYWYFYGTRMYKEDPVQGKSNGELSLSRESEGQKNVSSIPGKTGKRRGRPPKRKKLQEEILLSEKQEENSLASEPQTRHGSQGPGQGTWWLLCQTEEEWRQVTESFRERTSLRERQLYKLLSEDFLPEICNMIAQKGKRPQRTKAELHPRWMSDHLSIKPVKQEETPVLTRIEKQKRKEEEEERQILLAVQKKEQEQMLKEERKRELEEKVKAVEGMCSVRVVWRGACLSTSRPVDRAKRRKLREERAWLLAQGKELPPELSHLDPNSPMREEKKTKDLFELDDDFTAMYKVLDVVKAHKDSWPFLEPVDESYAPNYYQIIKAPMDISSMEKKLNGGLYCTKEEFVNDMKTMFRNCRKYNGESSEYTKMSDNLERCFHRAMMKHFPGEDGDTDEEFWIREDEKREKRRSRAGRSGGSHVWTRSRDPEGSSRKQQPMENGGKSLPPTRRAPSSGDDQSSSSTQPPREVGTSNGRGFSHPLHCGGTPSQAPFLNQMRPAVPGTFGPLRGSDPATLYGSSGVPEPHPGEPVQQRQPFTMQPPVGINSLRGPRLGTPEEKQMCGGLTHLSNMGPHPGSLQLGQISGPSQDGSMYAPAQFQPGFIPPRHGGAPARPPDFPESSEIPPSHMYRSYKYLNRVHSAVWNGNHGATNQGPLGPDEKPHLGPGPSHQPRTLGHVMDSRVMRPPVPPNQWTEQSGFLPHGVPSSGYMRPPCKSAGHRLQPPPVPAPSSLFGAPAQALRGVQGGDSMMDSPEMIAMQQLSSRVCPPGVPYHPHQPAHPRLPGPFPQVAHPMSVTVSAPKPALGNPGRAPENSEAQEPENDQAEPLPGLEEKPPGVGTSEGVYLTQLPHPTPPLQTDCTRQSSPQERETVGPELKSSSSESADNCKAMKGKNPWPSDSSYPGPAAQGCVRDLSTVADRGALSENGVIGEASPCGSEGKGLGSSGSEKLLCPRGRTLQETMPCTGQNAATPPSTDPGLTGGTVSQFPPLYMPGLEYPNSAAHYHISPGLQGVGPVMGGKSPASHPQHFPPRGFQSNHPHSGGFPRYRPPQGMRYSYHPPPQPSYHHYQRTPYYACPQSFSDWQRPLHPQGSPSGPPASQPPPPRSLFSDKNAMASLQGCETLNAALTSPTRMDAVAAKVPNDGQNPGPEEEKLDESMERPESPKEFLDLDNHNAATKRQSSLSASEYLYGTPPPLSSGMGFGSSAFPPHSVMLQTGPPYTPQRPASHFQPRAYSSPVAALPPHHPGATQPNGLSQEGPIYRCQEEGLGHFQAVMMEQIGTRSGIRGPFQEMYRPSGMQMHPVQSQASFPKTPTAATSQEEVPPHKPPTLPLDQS

SMILES | ΔTm
Cc1noc(C)c1-c1cc(OCCCCCCCC(=O)NO)cc(C(=O)c2ccccc2)c1 | 2.06 °C
Cc1noc(C)c1-c1cccc(NC(=O)CCCCCC(=O)NO)c1 | 0.64 °C
Cc1noc(C)c1-c1cc(NC(=O)CCCCCCC(=O)NO)cc(C(=O)c2ccccc2)c1 | 1.96 °C
Cc1noc(C)c1-c1cc(NC(=O)CCCCCC(=O)NO)cc(C(=O)c2ccccc2)c1 | 1.52 °C
Cc1noc(C)c1-c1cc(NC(=O)CCCCC(=O)NO)cc(C(=O)c2ccccc2)c1 | 1.65 °C
Cc1noc(C)c1-c1cc(OCCCCCC(=O)NO)cc(C(=O)c2ccccc2)c1 | 1.18 °C
Cc1noc(C)c1-c1cc(OCCCCCCC(=O)NO)cc(C(O)c2ccccc2)c1 (configuration not stated) | 1.32 °C

The compounds below were run against CREB-binding protein (Homo sapiens) (UniProt Q92793) (assay: Binding affinity to human CREBBP expressed in Escherichia coli BL21(DE3)-R3-pRARE2 assessed as change in melting temperature at 25 uM by SYPRO orange based protein stability shift assay). Conditions: not given.

SMILES | ΔTm
Cc1noc(C)c1-c1cc(OCCCCCCCC(=O)NO)cc(C(=O)c2ccccc2)c1 | 0.65 °C
Cc1noc(C)c1-c1cc(OCCCCCCC(=O)NO)cc(C(=O)c2ccccc2)c1 | 2.13 °C
Cc1noc(C)c1-c1cccc(NC(=O)CCCCCC(=O)NO)c1 | 0.73 °C
Cc1noc(C)c1-c1cc(NC(=O)CCCCCCC(=O)NO)cc(C(=O)c2ccccc2)c1 | 3.24 °C
Cc1noc(C)c1-c1cc(OCCCCC(=O)NO)cc(C(=O)c2ccccc2)c1 | -0.01 °C
Cc1noc(C)c1-c1cc(NC(=O)CCCCCC(=O)NO)cc(C(=O)c2ccccc2)c1 | 2.32 °C
Cc1noc(C)c1-c1cc(NC(=O)CCCCC(=O)NO)cc(C(=O)c2ccccc2)c1 | 2.05 °C
Cc1noc(C)c1-c1cc(OCCCCCC(=O)NO)cc(C(=O)c2ccccc2)c1 | 1.69 °C
Cc1noc(C)c1-c1cc(OCCCCCCC(=O)NO)cc(C(O)c2ccccc2)c1 (configuration not stated) | 4.03 °C

The compounds below were run against Histone acetyltransferase KAT2B (Homo sapiens) (UniProt Q92831) (assay: Binding affinity to human PCAF expressed in Escherichia coli BL21(DE3)-R3-pRARE2 assessed as change in melting temperature at 25 uM by SYPRO orange based protein stability shift assay). Conditions: not given.
Chain of Histone acetyltransferase KAT2B (Homo sapiens) (Q92831 whole entry, looked up): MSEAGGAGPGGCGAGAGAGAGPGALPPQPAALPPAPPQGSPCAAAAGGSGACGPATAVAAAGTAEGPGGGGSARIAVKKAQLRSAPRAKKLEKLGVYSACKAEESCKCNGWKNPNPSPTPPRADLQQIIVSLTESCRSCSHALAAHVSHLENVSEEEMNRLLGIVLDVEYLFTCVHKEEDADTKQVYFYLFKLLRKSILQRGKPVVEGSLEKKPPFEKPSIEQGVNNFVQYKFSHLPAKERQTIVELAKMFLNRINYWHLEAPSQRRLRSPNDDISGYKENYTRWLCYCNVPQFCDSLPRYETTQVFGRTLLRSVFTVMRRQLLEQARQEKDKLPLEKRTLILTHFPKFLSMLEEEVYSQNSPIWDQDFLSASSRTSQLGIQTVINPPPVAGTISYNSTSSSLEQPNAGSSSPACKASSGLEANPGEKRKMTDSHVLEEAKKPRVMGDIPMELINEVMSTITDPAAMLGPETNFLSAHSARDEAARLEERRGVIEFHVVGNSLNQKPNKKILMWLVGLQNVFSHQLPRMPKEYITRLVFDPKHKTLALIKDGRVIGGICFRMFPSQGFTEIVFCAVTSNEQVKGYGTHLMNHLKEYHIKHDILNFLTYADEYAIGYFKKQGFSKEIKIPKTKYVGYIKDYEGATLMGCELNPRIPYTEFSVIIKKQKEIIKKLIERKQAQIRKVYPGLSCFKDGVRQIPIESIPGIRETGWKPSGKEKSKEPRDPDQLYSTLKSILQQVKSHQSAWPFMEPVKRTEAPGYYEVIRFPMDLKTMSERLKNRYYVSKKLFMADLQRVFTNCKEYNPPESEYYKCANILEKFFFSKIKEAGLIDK

SMILES | ΔTm
Cc1noc(C)c1-c1cc(OCCCCCCCC(=O)NO)cc(C(=O)c2ccccc2)c1 | -0.31 °C
Cc1noc(C)c1-c1cc(OCCCCCCC(=O)NO)cc(C(=O)c2ccccc2)c1 | 1.04 °C
Cc1noc(C)c1-c1cccc(NC(=O)CCCCCC(=O)NO)c1 | 0.05 °C
Cc1noc(C)c1-c1cc(NC(=O)CCCCCCC(=O)NO)cc(C(=O)c2ccccc2)c1 | 1.35 °C
Cc1noc(C)c1-c1cc(OCCCCC(=O)NO)cc(C(=O)c2ccccc2)c1 | -7.9 °C
Cc1noc(C)c1-c1cc(NC(=O)CCCCCC(=O)NO)cc(C(=O)c2ccccc2)c1 | 0.92 °C
Cc1noc(C)c1-c1cc(NC(=O)CCCCC(=O)NO)cc(C(=O)c2ccccc2)c1 | 0.31 °C
Cc1noc(C)c1-c1cc(OCCCCCC(=O)NO)cc(C(=O)c2ccccc2)c1 | 0.28 °C
Cc1noc(C)c1-c1cc(OCCCCCCC(=O)NO)cc(C(O)c2ccccc2)c1 (configuration not stated) | 0.35 °C

The compounds below were run against Transcription initiation factor TFIID subunit 1 (Homo sapiens) (UniProt P21675) (assay: Binding affinity to human TAF1 expressed in Escherichia coli BL21(DE3)-R3-pRARE2 assessed as change in melting temperature at 25 uM by SYPRO orange based protein stability shift assay). Conditions: not given.
Chain of Transcription initiation factor TFIID subunit 1 (Homo sapiens) (P21675 whole entry): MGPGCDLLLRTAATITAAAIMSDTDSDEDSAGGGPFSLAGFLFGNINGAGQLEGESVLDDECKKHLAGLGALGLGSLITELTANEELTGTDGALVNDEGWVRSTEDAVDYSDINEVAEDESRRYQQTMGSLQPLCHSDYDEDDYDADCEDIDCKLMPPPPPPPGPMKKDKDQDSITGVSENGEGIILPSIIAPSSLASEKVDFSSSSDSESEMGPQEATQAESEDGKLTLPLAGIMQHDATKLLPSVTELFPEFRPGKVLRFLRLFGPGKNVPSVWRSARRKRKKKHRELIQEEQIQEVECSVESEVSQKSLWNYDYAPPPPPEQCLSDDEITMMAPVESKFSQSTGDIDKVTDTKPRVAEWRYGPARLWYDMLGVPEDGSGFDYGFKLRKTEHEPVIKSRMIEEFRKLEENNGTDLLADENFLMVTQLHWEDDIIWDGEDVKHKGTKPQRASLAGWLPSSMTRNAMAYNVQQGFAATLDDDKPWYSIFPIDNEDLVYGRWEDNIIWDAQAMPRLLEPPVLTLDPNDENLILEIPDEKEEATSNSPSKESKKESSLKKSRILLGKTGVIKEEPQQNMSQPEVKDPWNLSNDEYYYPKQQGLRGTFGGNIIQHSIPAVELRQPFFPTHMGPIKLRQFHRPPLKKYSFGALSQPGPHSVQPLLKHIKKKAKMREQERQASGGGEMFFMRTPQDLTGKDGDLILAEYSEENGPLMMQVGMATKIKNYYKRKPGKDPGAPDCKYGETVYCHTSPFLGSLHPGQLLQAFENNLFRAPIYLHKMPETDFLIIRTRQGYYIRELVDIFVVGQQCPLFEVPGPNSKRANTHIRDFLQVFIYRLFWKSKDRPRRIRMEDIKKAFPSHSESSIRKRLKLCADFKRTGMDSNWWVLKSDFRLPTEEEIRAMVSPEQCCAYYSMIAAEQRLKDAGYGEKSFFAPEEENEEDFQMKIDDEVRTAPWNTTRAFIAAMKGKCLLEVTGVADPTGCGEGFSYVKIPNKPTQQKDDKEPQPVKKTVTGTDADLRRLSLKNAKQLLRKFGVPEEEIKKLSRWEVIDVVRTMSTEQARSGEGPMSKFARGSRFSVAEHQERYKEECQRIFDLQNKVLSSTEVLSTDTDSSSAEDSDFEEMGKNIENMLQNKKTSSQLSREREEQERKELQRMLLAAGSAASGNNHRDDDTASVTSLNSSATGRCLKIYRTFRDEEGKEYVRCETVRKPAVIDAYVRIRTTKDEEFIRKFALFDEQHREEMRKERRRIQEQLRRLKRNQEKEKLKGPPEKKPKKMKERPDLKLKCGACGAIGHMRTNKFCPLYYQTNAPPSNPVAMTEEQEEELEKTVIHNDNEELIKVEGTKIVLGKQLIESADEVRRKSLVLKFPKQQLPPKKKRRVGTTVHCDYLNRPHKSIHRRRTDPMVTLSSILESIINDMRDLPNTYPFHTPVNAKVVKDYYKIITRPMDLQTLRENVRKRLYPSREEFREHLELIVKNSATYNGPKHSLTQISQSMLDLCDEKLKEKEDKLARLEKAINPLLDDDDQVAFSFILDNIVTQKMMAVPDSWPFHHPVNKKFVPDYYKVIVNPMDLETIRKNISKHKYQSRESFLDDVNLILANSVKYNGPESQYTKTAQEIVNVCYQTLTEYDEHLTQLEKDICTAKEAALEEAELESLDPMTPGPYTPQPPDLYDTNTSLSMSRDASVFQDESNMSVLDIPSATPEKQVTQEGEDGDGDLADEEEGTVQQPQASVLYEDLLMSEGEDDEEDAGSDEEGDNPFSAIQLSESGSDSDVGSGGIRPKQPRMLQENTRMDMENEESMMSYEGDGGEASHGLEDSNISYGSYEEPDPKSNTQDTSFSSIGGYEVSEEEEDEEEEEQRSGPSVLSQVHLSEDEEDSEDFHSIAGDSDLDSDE

SMILES | ΔTm
Cc1noc(C)c1-c1cc(OCCCCCCCC(=O)NO)cc(C(=O)c2ccccc2)c1 | 1.77 °C
Cc1noc(C)c1-c1cc(OCCCCCCC(=O)NO)cc(C(=O)c2ccccc2)c1 | 2.22 °C
Cc1noc(C)c1-c1cccc(NC(=O)CCCCCC(=O)NO)c1 | 1.08 °C
Cc1noc(C)c1-c1cc(NC(=O)CCCCCCC(=O)NO)cc(C(=O)c2ccccc2)c1 | 2.22 °C
Cc1noc(C)c1-c1cc(OCCCCC(=O)NO)cc(C(=O)c2ccccc2)c1 | 1.14 °C
Cc1noc(C)c1-c1cc(NC(=O)CCCCCC(=O)NO)cc(C(=O)c2ccccc2)c1 | 1.76 °C
Cc1noc(C)c1-c1cc(NC(=O)CCCCC(=O)NO)cc(C(=O)c2ccccc2)c1 | 1.95 °C
Cc1noc(C)c1-c1cc(OCCCCCC(=O)NO)cc(C(=O)c2ccccc2)c1 | 1.69 °C
Cc1noc(C)c1-c1cc(OCCCCCCC(=O)NO)cc(C(O)c2ccccc2)c1 (configuration not stated) | 1.72 °C

What follows are compounds tested on MV4-11 (assay: Antiproliferative activity against human MV4-11 cells assessed as reduction in cell viability incubated for 72 hrs by Alamar blue assay). Conditions: MV4-11, 72 h.
Type: functional, cell-based

SMILES | pIC50
Cc1noc(C)c1-c1cc(NC(=O)CCCCCCC(=O)NO)cc(C(=O)c2ccccc2)c1 | 6.04
Cc1noc(C)c1-c1cc(NC(=O)CCCCCC(=O)NO)cc(C(=O)c2ccccc2)c1 | 5.98
Cc1sc2c(c1C)C(c1ccc(Cl)cc1)=N[C@@H](CC(=O)OC(C)(C)C)c1nnc(C)n1-2 (racemic) | 6.62

These compounds were tested against T1, Bromodomain-containing protein 4. Conditions: not given.

SMILES | ΔTm
Cc1noc(C)c1-c1cc(OCCCCCCCC(=O)NO)cc(C(=O)c2ccccc2)c1 | 4.91 °C
Cc1noc(C)c1-c1cc(OCCCCCCC(=O)NO)cc(C(=O)c2ccccc2)c1 | 7.41 °C
Cc1noc(C)c1-c1cccc(NC(=O)CCCCCC(=O)NO)c1 | 3.58 °C
Cc1noc(C)c1-c1cc(NC(=O)CCCCCCC(=O)NO)cc(C(=O)c2ccccc2)c1 | 7.49 °C
Cc1noc(C)c1-c1cc(OCCCCC(=O)NO)cc(C(=O)c2ccccc2)c1 | 5.89 °C
Cc1noc(C)c1-c1cc(NC(=O)CCCCCC(=O)NO)cc(C(=O)c2ccccc2)c1 | 6.37 °C
Cc1noc(C)c1-c1cc(NC(=O)CCCCC(=O)NO)cc(C(=O)c2ccccc2)c1 | 6.21 °C
Cc1noc(C)c1-c1cc(OCCCCCC(=O)NO)cc(C(=O)c2ccccc2)c1 | 7.54 °C
Cc1noc(C)c1-c1cc(OCCCCCCC(=O)NO)cc(C(O)c2ccccc2)c1 (configuration not stated) | 7.53 °C
